The source of these data is patent US20060166934A1, “Composition comprising phytosphingosine derivatives for apoptosis induction” (Tae-Yoon Kim, priority 2002, published 2006).

Like-named read-outs stand apart in the source and are kept apart here.

A short description of series [1]: MTT assay, cytotoxicity in human skin cancer cell line. The series is classed as cell-based. The conditions noted are these: human, Cell viability. In outline: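 A431 cells were seeded in serum-free medium and, about 3 h later, treated 24 h with phytosphingosine derivatives at final 1–100 μM (DMSO vehicle). MTT (2 mg/ml) was then added for 4 h, and the formazan was dissolved in DMSO and read at 540 nm for viability. C2-ceramide served as comparator.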
A general note: Tetrazolium dyes change colour on reduction, which living cells bring about.

Series [2] is described as follows: MTT assay, cytotoxicity in HUVEC. It counts as cell-based, human. The conditions noted are these: human. In outline: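 Primary HUVEC cultured from human umbilical vein; cells in serum-free medium were exposed to phytosphingosine derivatives at final 1–100 μM for 24 h. Viability by MTT (2 mg/ml, 4 h), formazan dissolved in DMSO and read at O.D. 540 nm; C2-ceramide run for comparison.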

Series [3] can be described thus: MTT assay, cytotoxicity in immune cells separated from spleen of mice. It counts as cell-based. The conditions noted are these: BDF, mouse. As for the experimental part:
(§1) The effect of the composition of the present invention on the cytotoxicity in immune cells (T cells, B cells, macrophages, monocytes, etc.) was examined. The spleen was removed from normal mice (BDF) and single cells were obtained from the spleen by mechanical aggregation method. And mononuclear cells containing T cells, B cells, macrophages and monocytes were isolated from single cells by density gradient centrifugation method using Ficoll Hypaque. Briefly, single cells were treated with PBS and overlayed on Ficoll Hypaque and centrifuged at 1500 rpm for 30 min. After centrifugation, the cells around the boundary of the Ficoll-Hapaque were collected and washed three times with PBS. The isolated cells were cultured for 24 hours in the presence of 1, 10, 50 and 100 μM of NAPS, TAPS, and PS to examine the effect of cytotoxicity, i.e. the degree of proliferation of the cells. C2-ceramide was used as control. The medium used in this experiment was RPMI 1640 suplemented with 10% of FBS and 100 μg/ml of penicillin and streptomycin.

The nature of series [4]: MTT assay, combined treatment with UVB irradiation. It counts as cell-based, human. The conditions noted are these: human, HaCaT cells, HaCaT, read-out: Cell viability. In outline:
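HaCaT cells in PBS irradiated with 200 J/m^2 UVB, then returned to DMEM and treated with test compounds for 24 h. Viability by MTT (2 mg/ml, 4 h), formazan dissolved in DMSO and read at 540 nm.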

In series [5] the test system is immune cells (T cells, B cells, macrophages, monocytes) from spleen of mice. Kind of series: MTT assay, cytotoxicity in immune cells separated from spleen of mice. The series is classed as cell-based. The conditions noted are these: mouse spleen immune cells, 24 hours, FIG. 2; read-out: IC50 (cytotoxicity). As for the experimental part: as §1
For the next series, the system named is HaCaT cells. Nature of the series: Mitosis by immunofluorescence (β-tubulin, DAPI). The series is classed as cell-based, human. The conditions noted are these: 30 μM, 24 hours versus 12 hours, FIG. 9. On the procedure:
Next, the cell cycle is observed according to the immunofluorescence method. In order to look into from which step among G2/M phase the induction of apoptosis by TAPS is induced, mitosis is observed by using β-tubulin. HaCaT cells are cultured on a dish with a cover slip and treated with TAPS (30 μM). The cells are washed with PBS at each time interval, fixed with 5% paraformaldehyde for 15 minutes, and reacted with β-tubulin antibody (1:100) for 1 hour. They were washed with PBS and reacted with Cy3-conjugated anti-mouse IgG secondarily. For DNA staining, 0.3 μg/ml of DAPI (Sigma) is added to the cells, which are observed by using a fluorescent microscope.

The subject of another series is Chk1. Nature of the series: Immunoblot analysis of Chk1. The series is classed as cell-based, human. The conditions noted are these: 30 μM, FIGS. 12 and 13. As for the experimental part:
In the confirmation of apoptosis-related proteins, the immunoblot analysis is performed in order to look into the effects of the compositions of the present invention on the expression of caspase-3, p53, and Chk1 proteins related to the induction of apoptosis. HaCaT cells are cultured on a 100-mm dish and collected at the indicative time. The proteins are extracted by adding 500 μl of RIPA lysis buffer (1% Nonidet P-40, 1% sodium deoxycholate, 0.1% SDS, […], 0.01 M sodium phosphate, pH 7.2, 2 mM EDTA, 50 mM sodium fluoride and 0.2 mM sodium vanadate), and the concentration is measured by using the Bradford method. 1 Extracted proteins is electrophoresed on 12% polyacrylamide gel, and they are transferred to the nitrocellulose membrane. The membrane blocked with 5% non-fat milk is reacted with the primary antibodies (caspase-3, p53, and Chk1), washed, and reacted with the secondary HRP-conjugated antibody. The intensity of proteins is analyzed by using the ECL kit.
In general terms: Immunoblotting shows a protein as a band on a membrane.

On to `CCCCCCCCCCCCCC[C@@H](O)[C@@H](O)[C@H](CO)NC(C)=O` [NAPS, N-acetyl phytosphingosine], for which the viability at 24 h, 3 µM in series [1] is 100 ± 10.2%; in series [4] (3 μM + UVB 200 J/m^2, 24 hours) it was 17 ± 1.6%; in series [4] (3 μM, no UVB, 24 hours), 117 ± 9.7%. Besides, the viability at 24 h, 10 µM in series [1] is 75 ± 6.9%; in series [4] (10 μM + UVB 200 J/m^2, 24 hours) it was 1 ± 0.1%; in series [4] (10 μM, no UVB, 24 hours), 67 ± 12%. For the same compound, the values for the viability at 24 h, 30 µM in series [1] and in series [2] were 31 ± 10% and 14 ± 0.6%, respectively. The viability at 24 h, 50 µM in series [1] is 1 ± 0.2%. Also, the viability at 24 h, 3.5 µM in series [2] was 66 ± 7.5%. In addition, in series [2], the viability at 24 h, 7 µM turned out to be 51 ± 10.5%. Further, the viability at 24 h, 15 µM in series [2] was determined as 19 ± 3.4%. Also, the IC50 at 24 h in series [3] is roughly 75 µM. Also, the viability at 24 h, 1 µM in series [4] (1 μM + UVB 200 J/m^2, 24 hours) worked out at 27 ± 5.8%; in series [4] (1 μM, no UVB, 24 hours), 130 ± 10%. The viability at 24 h, 5 µM in series [4] (5 μM + UVB 200 J/m^2, 24 hours) turned out to be 11 ± 1.3%; in series [4] (5 μM, no UVB, 24 hours) it was 110 ± 14%.
tetraacetyl phytosphingosine [TAPS]: the IC50 in series [5] was determined as 100 µM. Also, in the series on HaCaT cells, the “cells with chromosomes condensed” value is on record as “more cells with chromosomes condensed are observed 24 hours after treating with TAPS than 12 hours after”. Further, the Chk1 protein result in the series with Chk1 (at 8-hour) is listed as “not changed greatly”; with Chk1 (at 24 hour), “rapid reduction”.

A word on the viability: it is a read-out of living cells in per cent, often relative to untreated cells. As usually defined, the IC50 is the midpoint of a concentration-inhibition curve.
